One data set deals with α5β1 integrin (Homo sapiens, UniProt P05556+P08648). The data set is described as follows: Cell adhesion assay, SW480 plated on fibronectin. In kind it is cell-based. To be noted: for improvement of potency against α5β1 integrin: cell adhesion, versus alkyl-linker compounds.
For the next data set, the target named is αvβ3 integrin (Homo sapiens, UniProt P05106+P06756). The data set is described as follows: Cell adhesion assay, SW480 transfected with human β3 adhering to fibrinogen. The class given is cell-based.
The next data set has as its target αvβ1 integrin (UniProt G3HZ55+P06756). The data set is described as follows: Cell adhesion assay, CHOαv adhering to fibronectin. In kind it is cell-based.
A short description of another data set: Solubility. In kind it is physicochemical.
Another data set concerns Caco-2 cell. In words: Caco-2 cell permeability assay. The class given is in vitro ADME. On the technique in general: Caco-2 cells form a polarised layer with tight junctions and transporters.
The target of a further data set is α4β1 integrin (Homo sapiens, UniProt P05556+P13612). The conditions noted are these: cited from earlier work.

Each structure is given as a SMILES string.

Chain of αvβ3 integrin (P06756 31-889 limits assumed): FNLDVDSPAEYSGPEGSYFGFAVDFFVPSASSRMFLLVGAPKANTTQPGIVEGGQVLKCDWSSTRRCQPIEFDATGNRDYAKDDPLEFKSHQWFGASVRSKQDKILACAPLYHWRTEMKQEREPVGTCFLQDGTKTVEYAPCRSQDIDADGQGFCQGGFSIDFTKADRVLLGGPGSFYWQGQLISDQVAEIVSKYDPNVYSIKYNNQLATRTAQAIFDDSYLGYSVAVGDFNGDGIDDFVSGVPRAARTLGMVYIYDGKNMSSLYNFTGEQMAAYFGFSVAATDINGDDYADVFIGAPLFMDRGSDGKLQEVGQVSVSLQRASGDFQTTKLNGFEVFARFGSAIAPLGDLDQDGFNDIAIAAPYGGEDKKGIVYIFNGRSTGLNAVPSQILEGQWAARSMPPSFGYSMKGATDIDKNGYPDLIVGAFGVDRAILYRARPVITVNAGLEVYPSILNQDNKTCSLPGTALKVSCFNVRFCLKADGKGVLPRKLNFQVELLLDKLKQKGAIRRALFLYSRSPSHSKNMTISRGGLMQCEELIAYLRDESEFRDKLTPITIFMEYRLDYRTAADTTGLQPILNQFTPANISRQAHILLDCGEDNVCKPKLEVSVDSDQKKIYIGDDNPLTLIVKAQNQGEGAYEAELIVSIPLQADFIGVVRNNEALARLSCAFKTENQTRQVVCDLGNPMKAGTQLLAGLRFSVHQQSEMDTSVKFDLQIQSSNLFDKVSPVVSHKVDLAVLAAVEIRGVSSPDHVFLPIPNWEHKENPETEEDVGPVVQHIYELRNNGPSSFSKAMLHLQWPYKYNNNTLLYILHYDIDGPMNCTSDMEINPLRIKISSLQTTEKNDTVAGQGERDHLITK
Chain of αvβ3 integrin (P06756 891-1048 partner limits assumed): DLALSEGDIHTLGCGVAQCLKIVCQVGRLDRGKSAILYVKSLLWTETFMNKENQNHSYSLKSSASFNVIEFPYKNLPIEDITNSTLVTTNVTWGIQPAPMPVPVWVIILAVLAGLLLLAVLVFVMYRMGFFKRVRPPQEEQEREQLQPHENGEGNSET
Chain of αvβ3 integrin (P05106 27-788): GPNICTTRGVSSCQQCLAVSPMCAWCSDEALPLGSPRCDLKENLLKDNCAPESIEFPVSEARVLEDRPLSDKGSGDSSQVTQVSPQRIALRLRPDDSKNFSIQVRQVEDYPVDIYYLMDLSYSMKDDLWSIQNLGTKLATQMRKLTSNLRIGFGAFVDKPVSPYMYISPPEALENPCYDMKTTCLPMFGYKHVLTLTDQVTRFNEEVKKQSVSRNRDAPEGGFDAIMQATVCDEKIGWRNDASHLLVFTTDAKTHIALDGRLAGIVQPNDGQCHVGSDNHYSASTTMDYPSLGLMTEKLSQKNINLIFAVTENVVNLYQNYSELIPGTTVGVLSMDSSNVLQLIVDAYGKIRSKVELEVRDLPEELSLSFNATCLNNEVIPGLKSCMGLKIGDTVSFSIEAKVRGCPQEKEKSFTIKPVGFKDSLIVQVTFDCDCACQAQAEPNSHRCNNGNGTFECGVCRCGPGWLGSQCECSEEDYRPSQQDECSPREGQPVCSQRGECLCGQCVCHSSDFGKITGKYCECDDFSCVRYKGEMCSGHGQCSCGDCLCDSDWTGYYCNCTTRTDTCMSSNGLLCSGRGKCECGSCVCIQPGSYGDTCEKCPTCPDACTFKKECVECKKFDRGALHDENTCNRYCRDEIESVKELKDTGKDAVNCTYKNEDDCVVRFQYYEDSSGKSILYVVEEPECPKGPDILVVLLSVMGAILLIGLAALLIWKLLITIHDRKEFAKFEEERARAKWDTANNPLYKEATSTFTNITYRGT
Chain of α5β1 integrin (P08648 42-894 limits assumed): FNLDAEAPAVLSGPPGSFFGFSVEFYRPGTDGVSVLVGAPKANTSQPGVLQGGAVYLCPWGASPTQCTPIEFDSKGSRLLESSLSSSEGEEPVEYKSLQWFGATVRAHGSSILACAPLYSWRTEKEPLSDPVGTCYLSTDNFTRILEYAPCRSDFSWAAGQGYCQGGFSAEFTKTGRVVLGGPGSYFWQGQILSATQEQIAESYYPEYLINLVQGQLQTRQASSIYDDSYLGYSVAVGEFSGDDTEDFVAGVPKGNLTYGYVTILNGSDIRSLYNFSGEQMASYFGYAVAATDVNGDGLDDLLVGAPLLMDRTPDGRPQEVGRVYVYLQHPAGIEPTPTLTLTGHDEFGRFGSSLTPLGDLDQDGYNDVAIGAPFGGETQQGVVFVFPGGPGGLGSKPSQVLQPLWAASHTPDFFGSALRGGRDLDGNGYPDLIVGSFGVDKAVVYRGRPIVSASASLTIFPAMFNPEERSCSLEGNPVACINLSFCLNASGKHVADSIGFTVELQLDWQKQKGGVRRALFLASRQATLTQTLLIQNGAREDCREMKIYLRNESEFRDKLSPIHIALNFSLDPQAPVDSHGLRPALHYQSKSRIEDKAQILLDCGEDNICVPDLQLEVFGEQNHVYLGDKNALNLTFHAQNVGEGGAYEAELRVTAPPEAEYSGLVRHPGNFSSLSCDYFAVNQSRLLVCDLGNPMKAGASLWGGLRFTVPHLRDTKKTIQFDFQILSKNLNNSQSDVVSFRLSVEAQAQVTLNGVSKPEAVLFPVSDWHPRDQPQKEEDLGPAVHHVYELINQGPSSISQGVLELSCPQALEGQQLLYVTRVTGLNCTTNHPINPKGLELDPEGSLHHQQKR
Chain of α5β1 integrin (P08648 895-1049 partner limits assumed): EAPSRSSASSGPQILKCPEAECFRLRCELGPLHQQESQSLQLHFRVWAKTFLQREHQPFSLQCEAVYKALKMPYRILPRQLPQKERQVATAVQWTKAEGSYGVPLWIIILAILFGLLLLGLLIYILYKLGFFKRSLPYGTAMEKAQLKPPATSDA
Chain of α5β1 integrin (P05556 21-798): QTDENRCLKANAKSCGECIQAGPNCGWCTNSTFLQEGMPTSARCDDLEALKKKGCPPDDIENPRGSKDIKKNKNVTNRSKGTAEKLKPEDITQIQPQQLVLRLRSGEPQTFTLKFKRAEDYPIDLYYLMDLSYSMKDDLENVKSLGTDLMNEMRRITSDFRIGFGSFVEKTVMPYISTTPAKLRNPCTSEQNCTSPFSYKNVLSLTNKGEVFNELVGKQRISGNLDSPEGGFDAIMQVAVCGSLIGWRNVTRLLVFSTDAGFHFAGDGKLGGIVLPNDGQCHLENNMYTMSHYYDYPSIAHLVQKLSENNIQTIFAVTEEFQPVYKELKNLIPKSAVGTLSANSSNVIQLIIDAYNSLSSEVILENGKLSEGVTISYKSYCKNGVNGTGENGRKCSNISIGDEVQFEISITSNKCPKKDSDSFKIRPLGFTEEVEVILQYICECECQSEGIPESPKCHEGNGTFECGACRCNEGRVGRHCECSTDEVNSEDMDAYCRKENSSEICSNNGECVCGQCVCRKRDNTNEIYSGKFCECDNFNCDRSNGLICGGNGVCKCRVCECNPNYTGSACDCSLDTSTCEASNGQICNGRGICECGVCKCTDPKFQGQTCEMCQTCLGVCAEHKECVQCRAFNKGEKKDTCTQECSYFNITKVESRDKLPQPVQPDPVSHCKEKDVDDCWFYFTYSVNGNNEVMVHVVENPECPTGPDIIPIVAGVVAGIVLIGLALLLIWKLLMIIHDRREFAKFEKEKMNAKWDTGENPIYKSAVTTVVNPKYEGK
Chain of αvβ1 integrin (P06756 31-889 limits assumed): as the sequence (P06756 31-889 limits assumed) above
Chain of αvβ1 integrin (P06756 891-1048 limits assumed): as the sequence (P06756 891-1048 partner limits assumed) above
Chain of αvβ1 integrin (G3HZ55 21-798): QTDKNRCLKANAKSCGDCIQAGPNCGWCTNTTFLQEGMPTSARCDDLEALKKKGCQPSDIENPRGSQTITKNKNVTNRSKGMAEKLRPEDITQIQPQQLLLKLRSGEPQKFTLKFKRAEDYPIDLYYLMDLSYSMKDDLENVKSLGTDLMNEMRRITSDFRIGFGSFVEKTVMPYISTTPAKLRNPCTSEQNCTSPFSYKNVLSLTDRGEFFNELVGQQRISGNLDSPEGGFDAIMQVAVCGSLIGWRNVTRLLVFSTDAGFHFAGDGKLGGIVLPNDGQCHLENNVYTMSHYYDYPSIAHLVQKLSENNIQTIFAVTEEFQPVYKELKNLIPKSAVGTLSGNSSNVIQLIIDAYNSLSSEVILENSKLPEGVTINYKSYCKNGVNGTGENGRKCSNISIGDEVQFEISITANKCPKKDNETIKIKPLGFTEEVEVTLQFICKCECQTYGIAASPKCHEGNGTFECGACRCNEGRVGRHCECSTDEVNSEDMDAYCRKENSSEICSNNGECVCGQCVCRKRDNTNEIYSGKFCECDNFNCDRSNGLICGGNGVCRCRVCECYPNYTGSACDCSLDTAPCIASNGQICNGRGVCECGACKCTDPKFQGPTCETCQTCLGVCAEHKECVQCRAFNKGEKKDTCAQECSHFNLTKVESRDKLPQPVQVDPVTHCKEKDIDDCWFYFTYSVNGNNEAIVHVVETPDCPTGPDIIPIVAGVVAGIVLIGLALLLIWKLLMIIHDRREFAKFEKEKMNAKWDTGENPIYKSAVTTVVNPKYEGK

For the molecule `N=C(N)Nc1cccc(C(=O)NCC(=O)NC[C@H](NC(=O)[C@@H]2CCCN2S(=O)(=O)c2ccccc2)C(=O)O)c1` [Compound 11], on α5β1 integrin, the “improvement of potency against α5β1 integrin” value is “more than 10 fold”. Further, the “selectivity against αvβ3 integrin in cell adhesion assay (in words)” value (“selectivity against αvβ3 integrin” for short) at αvβ3 integrin is reported as “not still satisfactory”.
`N=C(N)NCCCCCNC(=O)NC[C@H](NC(=O)[C@@H]1CCCN1S(=O)(=O)c1ccccc1)C(=O)O` [Compound 5]: the “potency against α5β1 integrin in cell adhesion assay (in words)” value on α5β1 integrin is given as “sub-micromolar IC50”. For the same molecule, the “selectivity against αvβ3 integrin” value at αvβ3 integrin is on record as “excellent selectivity”. Also, the “potency against αvβ1 integrin in cell adhesion assay (in words)” value on αvβ1 integrin is “sub-nanomolar potency”.
With `N=C(N)Nc1cccc(C(=O)NNC(=O)NC[C@H](NC(=O)[C@@H]2CCCN2S(=O)(=O)c2ccccc2)C(=O)O)c1` [Compound 12], the “improvement of potency against α5β1 integrin” value at α5β1 integrin was “more than 10 fold”. Further, on αvβ3 integrin, the “selectivity against αvβ3 integrin” value was “not still satisfactory”.
`N=C(N)Nc1cc(NC(=O)CCCNC(=O)C23CC4CC(CC(C4)C2)C3)cc(C(=O)NCC(=O)NC[C@H](NC(=O)[C@@H]2CCCN2S(=O)(=O)c2ccccc2)C(=O)O)c1` [Compound 15]: the “potency against α5β1 integrin in cell adhesion assay (in words)” value at α5β1 integrin is “excellent nanomolar potency”. Besides, the “selectivity against αvβ3 integrin” value on αvβ3 integrin is listed as “great selectivity”. For the same molecule, the “solubility (in words)” value in the data set “Solubility” is on record as “limited solubility”. The “potency against αvβ1 integrin in cell adhesion assay (in words)” value at αvβ1 integrin is listed as “sub-nanomolar potency”. In addition, in the data set with Caco-2 cell, the “permeability in Caco-2 cell assay (in words)” value is “poor permeability”.
For the molecule `N=C(N)NCCCCC(=O)Nc1ccc(C[C@H](NC(=O)[C@@H]2CCCN2S(=O)(=O)c2ccccc2)C(=O)O)cc1` [Compound 4], the “selectivity against α4β1 integrin (in words)” value at α4β1 integrin is given as “marginal selectivity”.

The values are drawn from article PMC7700746 (Bioorganic & medicinal chemistry letters, 2020).
